These results are taken from patent US20100048597A1 (Novartis AG, priority 2006, published 2010).

Holding throughout (format): biochemical
One assay deals with T1, CDK1/cyclinB (Homo sapiens, UniProt P06493).
T1 construct: purchased Millipore
The assay can be described thus: CDK1/cyclinB kinase assay, IMAP fluorescence polarization. Here is the method:
(§1) Kinase assays were performed on recombinant purified enzymes using the non-radioactive IMAP fluorescence polarization assay format.
(§2) Compound stocks were prepared and diluted in DMSO and were added to kinase reactions at a 1/100 dilution for a final concentration of 1% DMSO. The components were added together to final concentrations listed in the tables below and incubated for two hours at room temperature.
(§3) The reactions were stopped by addition of stop solution.
The samples were allowed to incubate for one more hour at room temperature and then the fluorescence polarization was measured.
(Polarisation of emitted light reports the rotation of a fluorescent probe.)

In a further assay the target is T2, CDK9/cyclinT1 (Homo sapiens, UniProt P50750).
T2 construct: purchased Millipore
Kind of assay: CDK9/cyclinT1 kinase assay, IMAP fluorescence polarization. The protocol:
as §1, §2, §3
CDK9/CDK1/CDK7: final stop concentration is 1× Developer buffer (85% A/15% B), IMAP beads 1/400
(§4) The samples were allowed to incubate for one more hour at room temperature and then the fluorescence polarization was measured. The plate normalized millipolarization (mP) values were plotted against the log of compound concentration for each compound and IC50 values were calculated using the spotfire IC50 calculator and confirmed by visual analysis.

Another assay deals with T3, CDK2/cyclinA (Homo sapiens, UniProt P24941).
T3 construct: purchased Millipore
The assay can be described thus: CDK2/cyclinA kinase assay, IMAP fluorescence polarization. Here is the method: as §1, §2, §3
CDK2: final stop concentration is 1× Developer buffer (100% A), IMAP beads 1/400
as §4

Where two headings read alike, the source gives them in different places.

T2 sequence (P50750 whole entry): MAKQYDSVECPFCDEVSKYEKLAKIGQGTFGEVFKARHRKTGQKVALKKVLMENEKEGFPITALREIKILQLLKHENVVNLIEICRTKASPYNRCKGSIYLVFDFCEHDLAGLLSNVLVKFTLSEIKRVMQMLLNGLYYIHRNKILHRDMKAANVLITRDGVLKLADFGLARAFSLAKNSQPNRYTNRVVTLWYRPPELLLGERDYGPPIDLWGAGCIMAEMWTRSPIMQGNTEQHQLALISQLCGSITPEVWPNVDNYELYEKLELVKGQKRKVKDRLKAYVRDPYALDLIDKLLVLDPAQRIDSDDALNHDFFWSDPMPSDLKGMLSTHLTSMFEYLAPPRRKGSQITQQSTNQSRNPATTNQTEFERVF
T2 sequence (O60563 whole entry partner): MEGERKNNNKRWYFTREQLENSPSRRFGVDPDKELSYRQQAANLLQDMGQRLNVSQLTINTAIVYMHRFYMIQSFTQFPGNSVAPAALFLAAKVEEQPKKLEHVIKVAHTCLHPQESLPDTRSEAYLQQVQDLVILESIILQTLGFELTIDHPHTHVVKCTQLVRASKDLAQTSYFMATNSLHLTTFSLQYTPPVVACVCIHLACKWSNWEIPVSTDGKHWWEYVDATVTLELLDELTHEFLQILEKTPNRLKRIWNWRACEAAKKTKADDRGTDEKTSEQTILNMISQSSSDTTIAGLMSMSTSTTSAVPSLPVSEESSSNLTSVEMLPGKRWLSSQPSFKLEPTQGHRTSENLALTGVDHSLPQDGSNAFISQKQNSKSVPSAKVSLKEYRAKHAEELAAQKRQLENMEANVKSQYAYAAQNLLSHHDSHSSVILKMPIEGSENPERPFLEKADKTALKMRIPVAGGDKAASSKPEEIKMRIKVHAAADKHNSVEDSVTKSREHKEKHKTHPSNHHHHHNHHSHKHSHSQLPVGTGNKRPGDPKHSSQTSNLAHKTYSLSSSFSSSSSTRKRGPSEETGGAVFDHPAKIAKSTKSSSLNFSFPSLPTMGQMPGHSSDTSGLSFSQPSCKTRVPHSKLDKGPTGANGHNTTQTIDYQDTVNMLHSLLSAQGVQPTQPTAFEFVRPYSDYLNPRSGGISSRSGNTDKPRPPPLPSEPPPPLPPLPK
T1 sequence (P06493 whole entry): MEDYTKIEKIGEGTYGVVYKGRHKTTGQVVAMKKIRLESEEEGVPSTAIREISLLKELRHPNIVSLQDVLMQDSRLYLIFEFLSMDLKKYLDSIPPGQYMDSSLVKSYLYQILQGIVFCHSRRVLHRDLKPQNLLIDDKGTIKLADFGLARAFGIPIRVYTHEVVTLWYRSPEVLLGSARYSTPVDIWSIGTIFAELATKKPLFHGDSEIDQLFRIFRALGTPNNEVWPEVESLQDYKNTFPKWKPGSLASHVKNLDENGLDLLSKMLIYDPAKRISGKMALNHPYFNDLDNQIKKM
T1 sequence (P14635 whole entry partner): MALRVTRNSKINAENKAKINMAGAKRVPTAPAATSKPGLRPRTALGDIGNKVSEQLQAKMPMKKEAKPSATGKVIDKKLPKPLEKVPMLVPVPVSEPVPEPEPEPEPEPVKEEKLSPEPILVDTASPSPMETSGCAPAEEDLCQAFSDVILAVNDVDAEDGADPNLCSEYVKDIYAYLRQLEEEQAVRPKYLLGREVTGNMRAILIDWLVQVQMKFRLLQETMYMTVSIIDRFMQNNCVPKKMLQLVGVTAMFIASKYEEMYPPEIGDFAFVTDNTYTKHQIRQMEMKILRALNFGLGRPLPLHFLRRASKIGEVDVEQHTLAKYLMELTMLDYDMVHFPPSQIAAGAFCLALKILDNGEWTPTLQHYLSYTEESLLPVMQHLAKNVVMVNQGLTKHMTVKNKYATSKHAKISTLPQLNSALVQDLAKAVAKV

The IC50 is the concentration needed to halve the response being measured. In the case of `Nc1cnccc1-c1ccnc(Nc2cccc(Cl)c2)n1` [Compound 1, [4-(3-Amino-pyridin-4-yl)-pyrimidin-2-yl]-(3-chloro-phenyl)-amine], the IC50 on CDK1/cyclinB (read-out: CDK1 IC50), on CDK9/cyclinT1 and at CDK2/cyclinA was < 5 µM each time.

Regarding `COCCCNc1nccc(-c2ccnc(Nc3cccc(Cl)c3)n2)c1C` [Compound 18, (3-Chloro-phenyl)-{4-[2-(3-methoxy-propylamino)-3-methyl-pyridin-4-yl]-pyrimidin-2-yl}-amine], the concentration for half-maximal inhibition (IC50) at CDK1/cyclinB (read-out: CDK1 IC50), on CDK9/cyclinT1 and at CDK2/cyclinA was < 5 µM throughout.

`Clc1cccc(Nc2nccc(-c3cccnc3Cl)n2)c1` [Compound 43, (3-Chloro-phenyl)-[4-(2-chloro-pyridin-3-yl)-pyrimidin-2-yl]-amine]: the concentration for half-maximal inhibition (IC50) on CDK1/cyclinB (read-out: CDK1 IC50) and at CDK9/cyclinT1 was < 5 µM throughout.

As for `Clc1cccc(Nc2nccc(-c3cccnc3NCC3CCCCC3)n2)c1` [Compound 50, (3-Chloro-phenyl)-{4-[2-(cyclohexylmethyl-amino)-pyridin-3-yl]-pyrimidin-2-yl}-amine], the IC50 at CDK1/cyclinB (read-out: CDK1 IC50), at CDK9/cyclinT1 and against CDK2/cyclinA was > 50 µM each time.

As to `CS(=O)(=O)c1cccc(Nc2nccc(-c3cccnc3Nc3cccc(S(C)(=O)=O)c3)n2)c1` [Compound 51, (3-Methanesulfonyl-phenyl)-{4-[2-(3-methanesulfonyl-phenylamino)-pyridin-3-yl]-pyrimidin-2-yl}-amine], the concentration for half-maximal inhibition (IC50) on CDK1/cyclinB (read-out: CDK1 IC50) and at CDK9/cyclinT1 was < 5 µM in each case.

Consider `CN(C)CCNc1ncccc1-c1ccnc(Nc2cccc(Cl)c2)n1` [Compound 53, N-{3-[2-(3-Chloro-phenylamino)-pyrimidin-4-yl]-pyridin-2-yl}-N′,N′-dimethyl-ethane-1,2-diamine], for which the IC50 was 15 to 50 µM at CDK1/cyclinB (read-out: CDK1 IC50), < 5 µM on CDK9/cyclinT1 and 5 to 15 µM against CDK2/cyclinA.

Regarding `CC(=O)NCCNc1ncccc1-c1ccnc(Nc2cccc(Cl)c2)n1` [Compound 54, N-(2-{3-[2-(3-Chloro-phenylamino)-pyrimidin-4-yl]-pyridin-2-ylamino}-ethyl)-acetamide], the IC50 at CDK1/cyclinB (read-out: CDK1 IC50), on CDK9/cyclinT1 and at CDK2/cyclinA was < 5 µM each time.

As to `Cc1cnc(Nc2cccc(Cl)c2)nc1-c1cccnc1NCCCN` [Compound 56, N-{3-[2-(3-Chloro-phenylamino)-5-methyl-pyrimidin-4-yl]-pyridin-2-yl}-propane-1,3-diamine], the IC50 on CDK1/cyclinB (read-out: CDK1 IC50), at CDK9/cyclinT1 and at CDK2/cyclinA was < 5 µM in each case.

On to `CCCCNc1ncccc1-c1nc(Nc2cccc(Cl)c2)ncc1C` [Compound 57, [4-(2-Butylamino-pyridin-3-yl)-5-methyl-pyrimidin-2-yl]-(3-chloro-phenyl)-amine], for which the figures for the half-inhibitory concentration (IC50) at CDK1/cyclinB (read-out: CDK1 IC50), at CDK9/cyclinT1 and against CDK2/cyclinA were > 50 µM, < 5 µM and > 50 µM, respectively.

For the compound `CNCCCNc1ncccc1-c1ccnc(Nc2cccc(Cl)c2)n1` [Compound 62, N-{3-[2-(3-Chloro-phenylamino)-pyrimidin-4-yl]-pyridin-2-yl}-N′-methyl-propane-1,3-diamine], the IC50 at CDK1/cyclinB (read-out: CDK1 IC50) was 5 to 15 µM; against CDK9/cyclinT1, < 5 µM; on CDK2/cyclinA, 5 to 15 µM.

For `CC(=O)NCCCNc1ncccc1-c1nc(Nc2cccc(Cl)c2)ncc1C` [Compound 66, N-(3-{3-[2-(3-Chloro-phenylamino)-5-methyl-pyrimidin-4-yl]-pyridin-2-ylamino}-propyl)-acetamide], the IC50 was > 50 µM on CDK1/cyclinB (read-out: CDK1 IC50), < 5 µM at CDK9/cyclinT1 and 15 to 50 µM on CDK2/cyclinA.

Take `CC(C)(C)C(=O)NCCCNc1ncccc1-c1ccnc(Nc2cccc(Cl)c2)n1` [Compound 70, N-(3-{3-[2-(3-Chloro-phenylamino)-pyrimidin-4-yl]-pyridin-2-ylamino}-propyl)-2,2-dimethyl-propionamide]: the figures for the IC50 on CDK1/cyclinB (read-out: CDK1 IC50), against CDK9/cyclinT1 and against CDK2/cyclinA were 5 to 15 µM, < 5 µM and 5 to 15 µM, respectively.

In the case of `CC(C)(C)CC(=O)NCCCNc1ncccc1-c1ccnc(Nc2cccc(Cl)c2)n1` [Compound 71, N-(3-{3-[2-(3-Chloro-phenylamino)-pyrimidin-4-yl]-pyridin-2-ylamino}-propyl)-3,3-dimethyl-butyramide], the IC50 at CDK1/cyclinB (read-out: CDK1 IC50) is 5 to 15 µM; on CDK9/cyclinT1, < 5 µM; against CDK2/cyclinA, > 50 µM.

For `COCCCNc1ncccc1-c1ccnc(Nc2cccc(Cl)c2)n1` [Compound 75, (3-Chloro-phenyl)-{4-[2-(3-methoxy-propylamino)-pyridin-3-yl]-pyrimidin-2-yl}-amine], the half-inhibitory concentration (IC50) at CDK1/cyclinB (read-out: CDK1 IC50) is 5 to 15 µM; against CDK9/cyclinT1 it was < 5 µM; against CDK2/cyclinA it was < 5 µM.

On to `CC(=O)OCCCNc1ncccc1-c1ccnc(Nc2cccc(Cl)c2)n1` [Compound 76, Acetic acid 3-{3-[2-(3-chloro-phenylamino)-pyrimidin-4-yl]-pyridin-2-ylamino}-propyl ester], for which the 50% inhibitory concentration (IC50) was 5 to 15 µM at CDK1/cyclinB (read-out: CDK1 IC50), < 5 µM on CDK9/cyclinT1 and < 5 µM against CDK2/cyclinA.

As to `O=C1CCCN1CCCNc1ncccc1-c1ccnc(Nc2cccc(Cl)c2)n1` [Compound 77, 1-(3-{3-[2-(3-Chloro-phenylamino)-pyrimidin-4-yl]-pyridin-2-ylamino}-propyl)-pyrrolidin-2-one], the IC50 at CDK1/cyclinB (read-out: CDK1 IC50), against CDK9/cyclinT1 and on CDK2/cyclinA was < 5 µM in each case.

Take `Clc1cccc(Nc2nccc(-c3cccnc3NCCCN3CCOCC3)n2)c1` [Compound 78, (3-Chloro-phenyl)-{4-[2-(3-morpholin-4-yl-propylamino)-pyridin-3-yl]-pyrimidin-2-yl}-amine]: the concentration for half-maximal inhibition (IC50) at CDK1/cyclinB (read-out: CDK1 IC50) is 5 to 15 µM; on CDK9/cyclinT1, < 5 µM; against CDK2/cyclinA, < 5 µM.

Turning to `Cc1nccn1CCCNc1ncccc1-c1ccnc(Nc2cccc(Cl)c2)n1` [Compound 81, (3-Chloro-phenyl)-(4-{2-[3-(2-methyl-imidazol-1-yl)-propylamino]-pyridin-3-yl}-pyrimidin-2-yl)-amine], the half-inhibitory concentration (IC50) at CDK1/cyclinB (read-out: CDK1 IC50), against CDK9/cyclinT1 and at CDK2/cyclinA was < 5 µM each time.

With `Cc1cnc(Nc2cccc(Cl)c2)nc1-c1cccnc1NCCCn1ccnc1C` [Compound 82, (3-Chloro-phenyl)-(5-methyl-4-{2-[3-(2-methyl-imidazol-1-yl)-propylamino]-pyridin-3-yl}-pyrimidin-2-yl)-amine], the IC50 against CDK1/cyclinB is 5 to 15 µM; on CDK9/cyclinT1, < 5 µM; against CDK2/cyclinA, 15 to 50 µM.

As to `CC(=O)NCCCCNc1ncccc1-c1ccnc(Nc2cccc(Cl)c2)n1` [Compound 85, N-(4-{3-[2-(3-Chloro-phenylamino)-pyrimidin-4-yl]-pyridin-2-ylamino}-butyl)-acetamide], the IC50 on CDK1/cyclinB (read-out: CDK1 IC50), on CDK9/cyclinT1 and against CDK2/cyclinA was < 5 µM in each case.

As for `COc1ncccc1-c1ccnc(N)n1` [Compound 86, 4-(2-Methoxy-pyridin-3-yl)-pyrimidin-2-ylamine], the 50% inhibitory concentration (IC50) was > 50 µM at CDK1/cyclinB (read-out: CDK1 IC50) and 15 to 50 µM against CDK9/cyclinT1.

Turning to `CNc1nccc(-c2cccnc2OC)n1` [Compound 87, [4-(2-Methoxy-pyridin-3-yl)-pyrimidin-2-yl]-methyl-amine], the IC50 at CDK1/cyclinB (read-out: CDK1 IC50) and on CDK9/cyclinT1 was 15 to 50 µM throughout.

Take `COc1ncccc1-c1ccnc(NC2CCCCC2)n1` [Compound 88, Cyclohexyl-[4-(2-methoxy-pyridin-3-yl)-pyrimidin-2-yl]-amine]: the IC50 fell in the range of 15 to 50 µM at CDK1/cyclinB (read-out: CDK1 IC50) and 5 to 15 µM on CDK9/cyclinT1.

With `COc1ncccc1-c1ccnc(Nc2ccncc2)n1` [Compound 89], the IC50 on CDK1/cyclinB (read-out: CDK1 IC50), at CDK9/cyclinT1 and at CDK2/cyclinA was > 50 µM throughout.

Turning to `COc1ncccc1-c1ccnc(Nc2cccnc2)n1` [Compound 90, [4-(2-Methoxy-pyridin-3-yl)-pyrimidin-2-yl]-pyridin-3-yl-amine], the IC50 on CDK1/cyclinB (read-out: CDK1 IC50), at CDK9/cyclinT1 and against CDK2/cyclinA was > 50 µM in each case.

For `COc1ncccc1-c1ccnc(Nc2cccc([N+](=O)[O-])c2)n1` [Compound 92, [4-(2-Methoxy-pyridin-3-yl)-pyrimidin-2-yl]-(3-nitro-phenyl)-amine], the figures for the IC50 at CDK1/cyclinB (read-out: CDK1 IC50), on CDK9/cyclinT1 and on CDK2/cyclinA were > 50 µM, < 5 µM and > 50 µM, respectively.

In the case of `COc1ncccc1-c1ccnc(Nc2cccc(C(=O)O)c2)n1` [Compound 94, 3-[4-(2-Methoxy-pyridin-3-yl)-pyrimidin-2-ylamino]-benzoic acid], the half-maximal inhibitory concentration (IC50) was 15 to 50 µM on CDK1/cyclinB (read-out: CDK1 IC50), 15 to 50 µM against CDK9/cyclinT1 and < 5 µM on CDK2/cyclinA.

In the case of `COc1ncccc1-c1ccnc(Nc2cccc(C(N)=O)c2)n1` [Compound 95, 3-[4-(2-Methoxy-pyridin-3-yl)-pyrimidin-2-ylamino]-benzamide], the 50% inhibitory concentration (IC50) on CDK1/cyclinB (read-out: CDK1 IC50), against CDK9/cyclinT1 and against CDK2/cyclinA was < 5 µM each time.

Regarding `CCNC(=O)c1cccc(Nc2nccc(-c3cccnc3OC)n2)c1` [Compound 96, N-Ethyl-3-[4-(2-methoxy-pyridin-3-yl)-pyrimidin-2-ylamino]-benzamide], the half-inhibitory concentration (IC50) on CDK1/cyclinB (read-out: CDK1 IC50), against CDK9/cyclinT1 and on CDK2/cyclinA was < 5 µM in each case.

In the case of `COc1ccc(-c2ccnc(Nc3cccc(Cl)c3)n2)c(OC)n1` [Compound 118, (3-Chloro-phenyl)-[4-(2,6-dimethoxy-pyridin-3-yl)-pyrimidin-2-yl]-amine], the IC50 on CDK1/cyclinB (read-out: CDK1 IC50) is > 50 µM; on CDK9/cyclinT1 it was 5 to 15 µM.
